The source of these data is publication PMC9969401, “Discovery of 2-(3-Benzamidopropanamido)thiazole-5-carboxylate Inhibitors of the Kinesin HSET (KIFC1) and the Development of Cellular Target Engagement Probes” (Journal of Medicinal Chemistry, 2023).

Bounds are passed on as bounds.

For one data set, the system named is DLD1 cells (4NCA and 4N). The format is cell-based. To be noted: human. As to the method: Inhibition of HSET-mediated clustering was measured using a phenotypic assay measuring the formation of multipolar metaphase spindles in DLD1 cells with (4NCA) or without (4N) centrosome amplification. 4NCA cells were generated by treating 2N DLD1 cells with 2 μΜ DCB for 24 h, washed, and released in growth media for 24 h. 4N and 4NCA DLD1 cells were plated in 96-well ibidi μ-Clear plates (IB-89626, ibidi) with a no. 1.5 polymer coverslip bottom with optimal imaging properties. To enrich the mitotic population, cells were first treated for 3.5 h with 8 μM pro-TAME (I-440-01M, R&D system), an inhibitor of APC/C that transiently arrests cells in metaphase without affecting the structure of the spindle. Following the initial arrest, cells were treated with HSET compounds in the presence of 8 μM MG-132 (S2619, SelleckChem), a proteasome inhibitor that helps to maintain the metaphase arrest, where the number of spindle poles/cell can be optimally quantified by an automated segmentation analysis.
Cells were then fixed in methanol and stained for 3 h for mitotic pole marker aurora A (1:1000 610939 mouse anti-IAK1, BD Biosciences) and phosphorylated histone H3 (1:1500 ab47297 anti-histone H3 pS10, Abcam) as a marker of mitotic cells in 1.5% FBS in PBS. Following primary antibody treatment, cells were incubated with secondary antibodies Alexa Fluor 488 goat antimouse and Alexa Fluor 555 goat antirabbit (1:1500, A11029 and A21429, respectively, Life Technologies) together with 1 μg/mL DAPI (D9542, Sigma) in 1.5% FBS in PBS. Image acquisition was performed at 10× using the GE INCELL 2200 High Content Imaging System (Cytiva) and analyzed using the InCell Investigator software. Mitotic cells were identified by high pHH3 staining and were scored as multipolar if they had more than two mitotic spindle poles. The percentage of multipolar mitoses was calculated by dividing the number of multipolar mitoses by the total of all visible mitoses in one well of a 96-well plate (n > 100 for each replicate, two replicates per concentration point).
3. […]

The nature of data set [1]: BALB/c mouse plasma stability assay. The format is in vitro ADME. To be noted: read-out: estimated half-life in plasma.
The next data set concerns DLD1 HSET KO cells. Nature of the data set: Click probe localization imaging in DLD1 HSET KO cells (negative control). The format is cell-based, human. To be noted: DLD1 HSET KO, Tz-Cy5 800nM. As to the method: The Cy-5 tetrazine dye selected for this experiment is not cell-permeable, thus fixation and permeabilization of cells were necessary prior to its addition. Experiments were conducted in DLD1 4N cells and, as a negative control, isogenic 2N DLD1 HSET KO cells in which HSET expression was prevented by the disruption of the HSET gene using CRISPR. Cells were treated first with proTAME for 2 h to accumulate mitotic events, followed by treatment with the TCO probe 40 for 45 min. The live cells were then fixed and permeabilized before treatment with the tetrazine-Cy5 dye and incubation to allow the IEDDA reaction to occur. Additionally, the cells were stained for the endogenous HSET protein using indirect immunofluorescence and imaged to observe the fluorescence from both the TCO probe and antibody-labeled HSET. […] A 3 μM concentration of the probe 40 gave an acceptable signal-to-noise ratio of around 2:1. Even under these optimal conditions, some residual uniform cytoplasmic Cy5 signal was observed within the cells. However, a clear Cy5 decoration of the mitotic spindle was seen, which overlapped with the signal from the antibody-probed endogenous HSET protein (Figures 2A and S6). […] We observed a 14–17-fold increase in signal in DLD1 4N cells treated with 40 relative to tetrazine-Cy5 alone. […] Comparing the intensity of click probe labeling coincident with the mitotic spindle in DLD1 4N cells to that in DLD1 HSET KO cells after both were treated with 40, we observed a twofold higher signal in the former.
Direct target engagement of active inhibitor 36 was measured by calculating its capacity to displace the TCO-containing probe 40. 4N DLD1 cells and DLD1 HSET KO cells (negative control) were plated in 96-well ibidi μ-Clear plates (IB-89626, ibidi). Cells were first treated for 2 h with 8 μM pro-TAME (I-440–01M, R&D system) to accumulate mitotic cells and were then treated with 8 μM MG-132 (S2619, SelleckChem) and 3 μM 40, alone or together with active inhibitor 36 in DMEM media with 1% FBS for 45 min. Cells were then washed three times in DMEM, with the second wash being incubated for 10 min to ensure the optimal reduction of unspecific compound binding. After an additional PBS wash, cells were then fixed in 4% PFA/PBS (15670799, Thermo Scientific) prior to incubation with 400 nM tetraszine-Cy5 (CLK-015-05, Jena Biosciences) in 1.5% FBS/PBS for 10 min at room temperature. Cells were permeabilized by the addition of 0.5% TritonX-100/PBS for 5 min before being stained overnight for Pericentrin (1:1500 ab28144 mouse anti-PCNT, Abcam) and KIFC1 (1:1500 12313S rabbit anti-KIFC1, Cell Signaling Technologies). Secondary antibodies Alexa Fluor 488 donkey antirabbit and Alexa Fluor 555 donkey antimouse (1:1500, A21206 and A31570, respectively, Life Technologies) were added together with 1 μg/mL DAPI (D9542, Sigma) in 1.5% FBS in PBS.
Plates were imaged at 40× using a Zeiss LSM980 confocal microscope with Airyscan 2. The subsequent analysis and quantification were performed using 3D image segmentation with the Arivis4D software. Mitotic cells were segmented by selecting for the highest density (integrated DAPI intensity/total volume), and the mitotic pole areas were segmented using the Pericentrin signal. The signal of the click probe (Cy5) and total KIFC1 (FITC) was measured on the mitotic pole area, and both were normalized to the control condition containing 40 probe alone. The ratio of probe per target (click probe pole integrated intensity signal/KIFC1 pole integrated intensity signal) was used to calculate the occupancy of the probe in the target protein and normalized to the control condition containing 40 probe alone (n > 100 for each replicate, two replicates per concentration point).

As usually defined, the half-life is the time in which the quantity being followed falls by half.

With `CCCOC(=O)c1sc(NC(=O)C[C@H](CCCNC)NC(=O)c2cccc(-c3noc(C)n3)c2)nc1C` [Compound 35, Propyl (S)-4-Methyl-2-(3-(3-(5-methyl-1,2,4-oxadiazol-3-yl)benzamido)-6-(methylamino)hexanamido)thiazole-5-carboxylate], in the data set with DLD1 cells (4NCA and 4N), the “concentration at which cellular toxicity observed” value is on record as 60 µM.

Turning to `CCCOC(=O)c1sc(NC(=O)CCNC(=O)c2cccc(-c3noc(C)n3)c2)nc1C` [Compound 32, Propyl 4-Methyl-2-(3-(3-(5-methyl-1,2,4-oxadiazol-3-yl)benzamido)propanamido)thiazole-5-carboxylate], the half-life in data set [1] is 3.58 h. Moreover, in the data set on DLD1 cells (4NCA and 4N), the “concentration at which cellular toxicity observed” value is recorded as more than 15 µM.

On to `CCCOC(=O)c1sc(NC(=O)C[C@H](CCCN(C)C(=O)O[C@@H]2CC/C=C/CCC2)NC(=O)c2cccc(-c3noc(C)n3)c2)nc1C` [Compound 38, Propyl 2-((S)-6-(((((S,E)-Cyclooct-4-en-1-yl)oxy)carbonyl)(methyl)amino)-3-(3-(5-methyl-1,2,4-oxadiazol-3-yl)benzamido)hexanamido)-4-methylthiazole-5-carboxylate], for which the “Average Pixel intensity” value was found to be 799 with DLD1 HSET KO cells (5μM, Panel A: 3 quick washes at room temperature); 752 in the data set on DLD1 HSET KO cells (5μM, Panel B: 2 quick washes then 1 at 37 °C for 5 minutes); 702 with DLD1 HSET KO cells (5μM, Panel C: 2 quick washes then 1 at 37 °C for 10 minutes); 1464 in the data set on DLD1 HSET KO cells (10μM, Panel A: 3 quick washes at room temperature); 1121 with DLD1 HSET KO cells (10μM, Panel B: 2 quick washes then 1 at 37 °C for 5 minutes); 803 in the data set with DLD1 HSET KO cells (10μM, Panel C: 2 quick washes then 1 at 37 °C for 10 minutes).
